Experimental data reported in ChEMBL document CHEMBL1201862, “PubChem BioAssay data set” (2004).
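Compound exposure: 48 hours, 5 concentrations, 96-well plates. The concentration for 50% growth inhibition is given as GI50.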 Active and inactive are the calls of the source. Cut-off read from the data, not from the text of the source: active = GI50 up to about 1.1 µM and inactive = higher.

Experiments:
Test in all cases: growth of human tumour cells (NCI), 48 h
M14 = tested on: M14
MOLT-4 = tested on: MOLT-4
NCI/ADR-RES = tested on: NCI/ADR-RES
SR = tested on: SR
786-0 = tested on: 786-0
EKVX = tested on: EKVX
PC-3 = tested on: PC-3
SNB-19 = tested on: SNB-19
NCI-H522 = tested on: NCI-H522
HOP-92 = tested on: HOP-92
NCI-H23 = tested on: NCI-H23
RPMI-8226 = tested on: RPMI-8226
Hs-578T = tested on: Hs-578T
SF-295 = tested on: SF-295
OVCAR-4 = tested on: OVCAR-4
HCT-15 = tested on: HCT-15
LOX IMVI = tested on: LOX IMVI
TK-10 = tested on: TK-10
CAKI-1 = tested on: CAKI-1
HL-60 = tested on: HL-60

| SMILES | GI50 (M14) | GI50 (MOLT-4) | GI50 (NCI/ADR-RES) | GI50 (SR) | GI50 (786-0) | GI50 (EKVX) | GI50 (PC-3) | GI50 (SNB-19) | GI50 (NCI-H522) | GI50 (HOP-92) | GI50 (NCI-H23) | GI50 (RPMI-8226) | GI50 (Hs-578T) | GI50 (SF-295) | GI50 (OVCAR-4) | GI50 (HCT-15) [µM] | GI50 (LOX IMVI) | GI50 (TK-10) | GI50 (CAKI-1) | GI50 (HL-60) |
| --- | --- | --- | --- | --- | --- | --- | --- | --- | --- | --- | --- | --- | --- | --- | --- | --- | --- | --- | --- | --- |
| c1ccc(CNCCN2CCNCC2)nc1 | > 100 µM (inactive) | > 100 µM (inactive) | > 100 µM (inactive) | > 100 µM (inactive) | > 100 µM (inactive) | > 100 µM (inactive) | > 100 µM (inactive) | > 100 µM (inactive) | > 100 µM (inactive) | > 100 µM (inactive) | > 100 µM (inactive) | > 100 µM (inactive) | > 100 µM (inactive) | > 100 µM (inactive) | > 100 µM (inactive) | > 100 | > 100 µM (inactive) | > 100 µM (inactive) | > 100 µM (inactive) |  |
| COc1ccc(OC)c(/C=C/c2ccnc3ccccc23)c1 | 0.375 µM (active) | 0.519 µM (active) | 0.255 µM (active) | 0.277 µM (active) | 0.482 µM (active) | 0.463 µM (active) | 0.514 µM (active) | 0.631 µM (active) | 0.281 µM (active) | 1.07 µM (active) | 0.346 µM (active) | 0.773 µM (active) | 0.34 µM (active) | 0.332 µM (active) | 0.863 µM (active) | 0.372 | 0.365 µM (active) | 1.61 µM (inactive) | 1.28 µM (inactive) | 0.2 µM (active) |
| Cc1cccc2c(N)c3cccc(C(=O)NCC[N+](C)(C)Cc4ccc([N+](=O)[O-])n4C)c3nc12 | 23.3 µM (inactive) | 1.66 µM (inactive) | 55.3 µM (inactive) | 3.44 µM (inactive) | 7.45 µM (inactive) | 27.6 µM (inactive) | 24 µM (inactive) | 15.6 µM (inactive) | 8.65 µM (inactive) | 33.5 µM (inactive) | 13.2 µM (inactive) | 12.1 µM (inactive) | 7.26 µM (inactive) | 17.6 µM (inactive) | 46.8 µM (inactive) | 27.9 | 18 µM (inactive) | 47.9 µM (inactive) | 7.1 µM (inactive) | 4.6 µM (inactive) |
| C1CCNCC1.S=C(S)N1CCCCC1 | 25.4 µM (inactive) |  | 19.3 µM (inactive) | 0.46 µM (active) | 97.3 µM (inactive) | 111 µM (inactive) | 37.7 µM (inactive) | 149 µM (inactive) | 0.276 µM (active) | 95.1 µM (inactive) | 62.2 µM (inactive) | 3.75 µM (inactive) | 163 µM (inactive) | 99.8 µM (inactive) |  | 88.9 | 60.5 µM (inactive) | 135 µM (inactive) | 33.4 µM (inactive) | 0.307 µM (active) |
| CC(C)CC(=O)OC[n+]1cccc(-c2c(COC(=O)NC(C)C)c(COC(=O)NC(C)C)c3n2CCC3)c1 | 61.4 µM (inactive) | 38 µM (inactive) | 35.2 µM (inactive) | > 100 µM (inactive) | 27.5 µM (inactive) | > 100 µM (inactive) | 48.1 µM (inactive) | > 100 µM (inactive) | 23.7 µM (inactive) | 26.6 µM (inactive) | 31.1 µM (inactive) | 15.2 µM (inactive) | 74.1 µM (inactive) | 39 µM (inactive) | 38.5 µM (inactive) | 66.8 | 26.8 µM (inactive) | 63.5 µM (inactive) | 17.2 µM (inactive) |  |
| COc1ccc(C(Nc2ccccn2)c2cc(C(C)(C)C)cc(C(C)(C)C)c2O)cc1 (centres undefined) | 16.4 µM (inactive) |  | 16 µM (inactive) | 10.1 µM (inactive) | 21.4 µM (inactive) | 36 µM (inactive) | 21.8 µM (inactive) | 61 µM (inactive) | 4.05 µM (inactive) | 31.6 µM (inactive) | 17.1 µM (inactive) | 23.1 µM (inactive) | 6.07 µM (inactive) | 12.4 µM (inactive) | 34.4 µM (inactive) | 22.3 | 13.9 µM (inactive) | 49.7 µM (inactive) | 39.4 µM (inactive) |  |
| CCOc1cc(NC(C)=O)ccc1C(=O)NN1C(=O)/C(=C/c2ccco2)N=C1c1ccccc1 | > 100 µM (inactive) | 22.3 µM (inactive) | > 100 µM (inactive) | 41.5 µM (inactive) | > 100 µM (inactive) | 74.3 µM (inactive) | > 100 µM (inactive) | > 100 µM (inactive) | 24.9 µM (inactive) | 36.2 µM (inactive) | > 100 µM (inactive) | 15.1 µM (inactive) | 42.8 µM (inactive) | > 100 µM (inactive) | > 100 µM (inactive) | > 100 | > 100 µM (inactive) |  | > 100 µM (inactive) | > 100 µM (inactive) |
| C/C=C/C=C/C1=NN(c2cccc(S(=O)(=O)O)c2)C2(C1)SCC(=O)N2c1nc2ccccc2s1 (centres undefined) | > 100 µM (inactive) | 29.4 µM (inactive) | 51.2 µM (inactive) | 25.1 µM (inactive) | 19.8 µM (inactive) | 55.8 µM (inactive) | 62.2 µM (inactive) | 47 µM (inactive) | 33.1 µM (inactive) | 26.2 µM (inactive) | 42.5 µM (inactive) | 29.9 µM (inactive) | > 100 µM (inactive) |  | 93.3 µM (inactive) | 69.2 | 19.6 µM (inactive) | 47.8 µM (inactive) | 86.3 µM (inactive) | > 100 µM (inactive) |
| NS(=O)(=O)c1ccc(NC(=S)NC(=O)Nc2ccc(Cl)c(Cl)c2)cc1 | 7.33 µM (inactive) | 7.6 µM (inactive) | 16 µM (inactive) | < 0.01 µM (active) | 14.9 µM (inactive) | 23.7 µM (inactive) | 12.9 µM (inactive) | 11.9 µM (inactive) | 16 µM (inactive) | 26.5 µM (inactive) | 16 µM (inactive) | 19.6 µM (inactive) | 25.1 µM (inactive) | 13.4 µM (inactive) | 14.9 µM (inactive) | 11.4 | 6.17 µM (inactive) | 25.1 µM (inactive) | 18.7 µM (inactive) | 10.5 µM (inactive) |
| CNC(=O)C(C)NC(=O)C(Cc1ccccc1)NC(=O)OC(C)(C)C (centres undefined) | > 100 µM (inactive) | > 100 µM (inactive) | > 100 µM (inactive) | > 100 µM (inactive) | > 100 µM (inactive) | > 100 µM (inactive) | > 100 µM (inactive) | > 100 µM (inactive) | 51.2 µM (inactive) | > 100 µM (inactive) | > 100 µM (inactive) | > 100 µM (inactive) | > 100 µM (inactive) | > 100 µM (inactive) |  | > 100 | > 100 µM (inactive) | > 100 µM (inactive) | > 100 µM (inactive) | > 100 µM (inactive) |
| Cn1c(=O)c2sc3c4sc5c(=O)n(C)c6ccccc6c5c4sc3c2c2ccccc21 | > 100 µM (inactive) | > 100 µM (inactive) | > 100 µM (inactive) | 66.4 µM (inactive) | 38.1 µM (inactive) | > 100 µM (inactive) | > 100 µM (inactive) | 22.4 µM (inactive) | > 100 µM (inactive) | 90.8 µM (inactive) | > 100 µM (inactive) | > 100 µM (inactive) | 56.5 µM (inactive) |  | 98.9 µM (inactive) | > 100 |  | > 100 µM (inactive) | > 100 µM (inactive) | > 100 µM (inactive) |
